We go through 1 molecule from EPA's ToxValDB 9.5 (doi:10.2903/j.efsa.2019.5842).

≈ marks a conversion by molar mass, not a printed value.

Data set [1] has as its system Oncorhynchus mykiss. In words: LC10; higher = less toxic. The note with it: chronic/long-term; mortality.
For another data set, the system named is Oryctolagus sp. The note with it: reproduction developmental; body weight.
The test system of a further data set is Daphnia magna. The note with it: chronic/long-term; duration: 21 days; reproduction.
For a further data set, the system named is Folsomia candida. The note with it: chronic/long-term; duration: 28 days; reproduction.
For the next data set, the system named is Tagia sp. The note with it: chronic/long-term; duration: 56 days; reproduction.
A further data set concerns Hyalella azteca. The note with it: chronic/long-term; duration: 42 days.
Data set [2] relates to Oncorhynchus mykiss. Conditions: acute; duration: 96 hours; mortality.
The test system of the next data set is Apis mellifera. The note with it: acute, mortality.

In turn, `CCCCN(CC)c1c([N+](=O)[O-])cc(C(F)(F)F)cc1[N+](=O)[O-]` [Benfluralin] yielded an LC10 with Oncorhynchus mykiss [1] of 0.0013 µg/mL (≈ 0.00388 µM). The LD50 in the data set on Rattus norvegicus (acute, oral, mortality) is more than 5000 mg/kg-day; in the data set with Colinus virginianus (acute, oral, mortality) it was more than 2000 mg/kg-day; with Apis mellifera (dermal), more than 100 µg/piece; with Apis mellifera (oral, unspecified) it was more than 111 µg/piece. The NOAEL (usually the highest dose or exposure tested at which no adverse effect was seen) with Rattus norvegicus (chronic, duration: 2 years, histopathology: nonneoplastic) came to 0.5 mg/kg-day; in the data set on Rattus norvegicus (reproduction developmental, body weight), 5.5 mg/kg-day; in the data set on Oryctolagus sp., 50 mg/kg-day. The NOEC with Daphnia magna came out at 0.046 mg/L; with Folsomia candida, 5.5 mg/kg; with Tagia sp., 15.4 mg/kg; with Hyalella azteca it was 83 mg/kg. Moreover, in the data set with Oncorhynchus mykiss [2], the LC50 (usually the concentration that kills 50% of the test population) turned out to be 0.081 µg/mL (≈ 0.242 µM). The molecule also had an NOEL in the data set with Colinus virginianus (reproduction developmental) of 6.7 mg/kg-day.
